Like-named read-outs stand apart in the source and are kept apart here.
Tested on: human dermal papilla cells
Experiment: cells
Conditions: Human dermal papilla cell, read-out: viability of human dermal papilla cells
Method: Human follicle dermal papilla cells were purchased from PromoCell Co., and a human follicle dermal papilla cell growth medium containing fetal calf serum, bovine pituitary extract, basic fibroblast growth factor and insulin was used and cultured at 37° C. and 5% CO2 incubator.
When the cultured human dermal papilla cells were dispensed in a 48 well plate at 1 × 10^4 cell/mL, and when the amount reached 80% or more, the extract of Example was treated at the concentrations shown in Table 2 below. The positive control group was treated with minoxidil at concentrations of 10 and 50 µM. After culturing the cells for 24, 48, and 72 hours, 200 µL of a 0.5 mg/mL solution of MTT diluted in the medium were added and cultured at 37° C. for 4 hours. After removing the solution, adding 200 µL of DMSO, and transferring 100 µL to a 96 well plate, absorbance was measured at 585 nm using a microplate reader. The average absorbance value for each sample group was obtained, and the cell viability was evaluated by comparing the average absorbance value with the absorbance value of the control group.

Compound `Nc1cc(N2CCCCC2)nc(N)[n+]1[O-]` [Positive control group, minoxidil] has a viability at 10 µM (24 h) of 104%, a viability at 50 µM (24 h) of 107% and a viability at 10 µM (48 h) of 107%. The viability at 50 µM (48 h) was 116%, the viability at 10 µM (72 h) was 115% and the viability at 50 µM (72 h) was 125%.

Reference: US20230173008A1, “Composition for preventing hair loss or promoting hair growth comprising extract of above-ground part of carrots” (DAEBONG LS, LTD, priority 2020, published 2023)
